Source: PubChem BioAssay (NCI)
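Cells were grown in 96-well plates and exposed to each compound for 48 hours at five concentrations; endpoints were interpolated linearly between bracketing concentrations, or set to the highest concentration if not reached. At the GI50, growth is halved. Definition used: TGI = concentration required for complete inhibition of growth.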

What was measured:
Experiment in all cases: NCI anticancer screen, dose series, 48 h
[1] = test system: HS 578T breast
[2] = test system: PC-3 prostate
[3] = test system: NCI-H23 lung
[4] = test system: A549 NSCLC
[5] = test system: MOLT-4 leukemia
[6] = test system: SK-MEL-5 melanoma
[7] = test system: M14 melanoma
[8] = test system: NCI-H460 lung
[9] = test system: TK-10 renal
[10] = test system: MDA-MB-231 breast
[11] = test system: OVCAR-3 ovarian
[12] = test system: NCI-H522 lung
[13] = test system: HCC-2998 colon
[14] = test system: SNB-19 CNS
[15] = test system: HCT-15 colon
[16] = test system: SF-295 CNS
[17] = test system: UACC-257 melanoma
[18] = test system: SK-OV-3 ovarian
[19] = test system: SR leukemia
[20] = test system: T-47D breast
[21] = test system: K-562 leukemia
[22] = test system: UO-31 renal
[23] = test system: LOX IMVI melanoma
[24] = test system: EKVX NSCLC
[25] = test system: CCRF-CEM leukemia
[26] = test system: OVCAR-4 ovarian
[27] = test system: SF-539 CNS
[28] = test system: SN12C renal
[29] = test system: HL-60(TB) leukemia
[30] = test system: SF-268 CNS
[31] = test system: NCI-H226 lung
[32] = test system: BT-549 breast
[33] = test system: A498 renal
[34] = test system: OVCAR-8 ovarian
[35] = test system: ACHN renal
[36] = test system: MCF7 breast
[37] = test system: KM12 colon
[38] = test system: IGROV1 ovarian
[39] = test system: OVCAR-5 ovarian
[40] = test system: RXF 393 renal
[41] = test system: RPMI-8226 leukemia
[42] = test system: SW-620 colon
[43] = test system: SK-MEL-2 melanoma
[44] = test system: HOP-62 NSCLC
[45] = test system: MDA-MB-435
[46] = test system: NCI/ADR-RES ovarian
[47] = test system: SNB-75 CNS
[48] = test system: U251 CNS
[49] = test system: 786-0 renal
[50] = test system: UACC-62 melanoma
[51] = test system: DU-145 prostate
[52] = test system: SK-MEL-28 melanoma
[53] = test system: MDA-MB-468 breast
[54] = test system: HOP-92 NSCLC
[55] = test system: COLO 205 colon
[56] = test system: HT29 colon
[57] = test system: HCT-116 colon
[58] = test system: CAKI-1 renal
[59] = test system: MALME-3M melanoma

COc1ccc(CN2[C@@H](C(=O)NCc3ccc(C(=O)NO)cc3)Cc3c([nH]c4ccccc34)[C@@H]2C)cc1
GI50 [1]: 1.26 µM
TGI [1]: 13 µM
GI50 [2]: 3.02 µM
TGI [2]: > 21 µM
GI50 [3]: 3.33 µM
TGI [3]: 7.51 µM
GI50 [4]: 4.3 µM
TGI [4]: 16.5 µM
GI50 [5]: 1.6 µM
TGI [5]: > 21 µM
GI50 [6]: 2.96 µM
TGI [6]: 6.02 µM
GI50 [7]: 4.05 µM
TGI [7]: > 21 µM
GI50 [8]: 2.86 µM
TGI [8]: 10.6 µM
GI50 [9]: 2.6 µM
TGI [9]: 11.4 µM
GI50 [10]: 2.67 µM
TGI [10]: 5.73 µM
GI50 [11]: 2.51 µM
TGI [11]: 7.84 µM
GI50 [12]: 1.43 µM
TGI [12]: 5.35 µM
GI50 [13]: 2.72 µM
TGI [13]: 5.81 µM
GI50 [14]: 3.49 µM
TGI [14]: 8.5 µM
GI50 [15]: 4.56 µM
TGI [15]: 19.8 µM
GI50 [16]: 3.02 µM
TGI [16]: 6.21 µM
GI50 [17]: 2.19 µM
TGI [17]: 14.4 µM
GI50 [18]: 2.58 µM
TGI [18]: 6.14 µM
GI50 [19]: 0.335 µM
TGI [19]: > 21 µM
GI50 [20]: 3.56 µM
TGI [20]: 12.8 µM
GI50 [21]: 1.93 µM
TGI [21]: > 21 µM
GI50 [22]: 2.93 µM
TGI [22]: 6.19 µM
GI50 [23]: 3.23 µM
TGI [23]: 6.3 µM
GI50 [24]: 2.24 µM
TGI [24]: 13.5 µM
GI50 [25]: 1.27 µM
TGI [25]: > 21 µM
GI50 [26]: 4.58 µM
TGI [26]: > 21 µM
GI50 [27]: 2.7 µM
TGI [27]: 7.12 µM
GI50 [28]: 3.88 µM
TGI [28]: 13 µM
GI50 [29]: 2.65 µM
TGI [29]: 15.4 µM
GI50 [30]: 4.21 µM
TGI [30]: 11.2 µM
GI50 [31]: 1.98 µM
TGI [31]: 10.2 µM
GI50 [32]: 5.95 µM
TGI [32]: 15.6 µM
GI50 [33]: 0.822 µM
TGI [33]: 6.26 µM
GI50 [34]: 2.44 µM
TGI [34]: 8.91 µM
GI50 [35]: 3.67 µM
TGI [35]: 9.07 µM
GI50 [36]: 3.02 µM
TGI [36]: 13.8 µM
GI50 [37]: 3.3 µM
TGI [37]: 7.85 µM
GI50 [38]: 2.56 µM
TGI [38]: 5.78 µM
GI50 [39]: 1.43 µM
TGI [39]: 8.11 µM
GI50 [40]: 0.724 µM
TGI [40]: 3.71 µM
GI50 [41]: 3.03 µM
TGI [41]: > 21 µM
GI50 [42]: 2.34 µM
TGI [42]: 11.2 µM
GI50 [43]: 3.32 µM
TGI [43]: 7.3 µM
GI50 [44]: 2.56 µM
TGI [44]: 7.92 µM
GI50 [45]: 1.27 µM
TGI [45]: 5.56 µM
GI50 [46]: 8.01 µM
TGI [46]: > 21 µM
GI50 [47]: 1.23 µM
TGI [47]: 7.27 µM
GI50 [48]: 2.88 µM
TGI [48]: 8.88 µM
GI50 [49]: 5.15 µM
TGI [49]: > 21 µM
GI50 [50]: 2.08 µM
TGI [50]: 5.29 µM
GI50 [51]: 4.41 µM
TGI [51]: 17.8 µM
GI50 [52]: 2.6 µM
TGI [52]: 8.76 µM
GI50 [53]: 0.861 µM
TGI [53]: 4.45 µM
GI50 [54]: 2.2 µM
TGI [54]: 6.25 µM
GI50 [55]: 3.59 µM
TGI [55]: 8.33 µM
GI50 [56]: 3.84 µM
TGI [56]: > 21 µM
GI50 [57]: 1.47 µM
TGI [57]: > 21 µM
GI50 [58]: 2.83 µM
TGI [58]: 7.86 µM
GI50 [59]: 0.874 µM
TGI [59]: 4.86 µM

CC1(C)CC[C@]2(C(=O)Nc3ccccc3)CC[C@]3(C)C(=CC[C@@H]4[C@@]5(C)CC[C@H](N)C(C)(C)[C@@H]5CC[C@]43C)[C@H]2C1
GI50 [1]: 16.2 µM
TGI [1]: 35.2 µM
GI50 [2]: 15.9 µM
TGI [2]: 31.8 µM
GI50 [3]: 16.8 µM
TGI [3]: 31.5 µM
GI50 [4]: 17.4 µM
TGI [4]: 41.6 µM
GI50 [5]: 15.3 µM
TGI [5]: 42 µM
GI50 [6]: 15.5 µM
TGI [6]: 29 µM
GI50 [7]: 17.6 µM
TGI [7]: 33.8 µM
GI50 [8]: 13.4 µM
TGI [8]: 28 µM
GI50 [9]: 17.4 µM
TGI [9]: 33.3 µM
GI50 [10]: 16.1 µM
TGI [10]: 30 µM
GI50 [11]: 13.2 µM
TGI [11]: 26.6 µM
GI50 [12]: 16.2 µM
TGI [12]: 32.4 µM
GI50 [13]: 12 µM
TGI [13]: 25.1 µM
GI50 [14]: 16.4 µM
TGI [14]: 30.6 µM
GI50 [15]: 13.6 µM
TGI [15]: 27.9 µM
GI50 [16]: 15.6 µM
TGI [16]: 30.4 µM
GI50 [17]: 15.8 µM
TGI [17]: 32.2 µM
GI50 [18]: 17.2 µM
TGI [18]: 33.6 µM
GI50 [19]: 2.84 µM
TGI [19]: 13.3 µM
GI50 [20]: 14.9 µM
TGI [20]: 34.7 µM
GI50 [21]: 4.07 µM
TGI [21]: > 100 µM
GI50 [22]: 13.9 µM
TGI [22]: 27.1 µM
GI50 [23]: 4.31 µM
TGI [23]: 16.2 µM
GI50 [24]: 15.6 µM
TGI [24]: 30.4 µM
GI50 [25]: 14.6 µM
TGI [25]: 34.5 µM
GI50 [26]: 15.8 µM
TGI [26]: 31.4 µM
GI50 [27]: 15.4 µM
TGI [27]: 29.1 µM
GI50 [28]: 16.5 µM
TGI [28]: 30.6 µM
GI50 [29]: 10 µM
TGI [29]: 37.5 µM
GI50 [30]: 16.6 µM
TGI [30]: 33.5 µM
GI50 [31]: 14.9 µM
TGI [31]: 31.8 µM
GI50 [32]: 18.3 µM
TGI [32]: 32.9 µM
GI50 [33]: 13.2 µM
TGI [33]: 27.1 µM
GI50 [34]: 18.2 µM
TGI [34]: 38.3 µM
GI50 [35]: 15.9 µM
TGI [35]: 29.5 µM
GI50 [36]: 3.51 µM
TGI [36]: 14.7 µM
GI50 [37]: 17.3 µM
TGI [37]: 32.4 µM
GI50 [38]: 15.8 µM
TGI [38]: 30.2 µM
GI50 [39]: 16.2 µM
TGI [39]: 30 µM
GI50 [40]: 10.2 µM
TGI [40]: 24 µM
GI50 [41]: 19 µM
TGI [41]: 80 µM
GI50 [42]: 5.47 µM
TGI [42]: 20.3 µM
GI50 [43]: 17.1 µM
TGI [43]: 32.3 µM
GI50 [44]: 15.8 µM
TGI [44]: 32.4 µM
GI50 [45]: 14.8 µM
TGI [45]: 29 µM
GI50 [46]: 16.2 µM
TGI [46]: 31.9 µM
GI50 [47]: 12.2 µM
TGI [47]: 25.5 µM
GI50 [48]: 17.5 µM
TGI [48]: 35.1 µM
GI50 [49]: 13.8 µM
TGI [49]: 29 µM
GI50 [50]: 16.7 µM
TGI [50]: 30.6 µM
GI50 [51]: 16.1 µM
TGI [51]: 30.6 µM
GI50 [52]: 17.5 µM
TGI [52]: 31.7 µM
GI50 [53]: 13.3 µM
TGI [53]: 28.1 µM
GI50 [54]: 11.5 µM
TGI [54]: 26.1 µM
GI50 [55]: 15.6 µM
TGI [55]: 35.7 µM
GI50 [56]: 17.5 µM
TGI [56]: 39.9 µM
GI50 [57]: 9.26 µM
TGI [57]: 26.2 µM
GI50 [58]: 14.6 µM
TGI [58]: 28.5 µM
GI50 [59]: 16.4 µM
TGI [59]: 30.3 µM
